Assay [1] deals with Hep3B subcutaneous tumors without expression of integrin α6. The experiment in a line: Near infrared imaging, Hep3B subcutaneous tumors. The assay is classed as in vivo, mice.
Assay [2] concerns HCCLM3 subcutaneous tumors with high integrin α6 expression. Briefly: Near infrared imaging in HCCLM3 subcutaneous tumor bearing mice. In kind it is in vivo. Particulars: 2 μl of 1 mM, tail vein, 24 hours. As for the experimental part:
(§1) In the near infrared imaging of small animals, a 2 μl of 1 mM fluorescent probe RWYD-PEG4-K(ICG)-K(NOTA) (structural formula shown in FIG. 1C) was injected into the tail vein of HCCLM3 subcutaneous tumor bearing mice. After 24 hours of internal circulation, the distribution in the subcutaneous tumor bearing mice was observed.

Assay [3] concerns Hep3B subcutaneous tumors without expression of integrin α6. The experiment in a line: Near infrared imaging of Hep3B subcutaneous tumors. The assay is classed as in vivo, mice.
Assay [4] has as its system HCCLM3 subcutaneous tumors with high integrin α6 expression. Briefly: Near infrared imaging of HCCLM3 subcutaneous tumor bearing mice. In kind it is in vivo. Particulars: tail vein, 24 hours. How it is done: as §1

Regarding “RWYD-PEG4-K(ICG)-K(NOTA) [listing 1 of 2 here]”, the “tumor uptake, near infrared imaging” value in assay [1] is given as “not high taken up by Hep3B subcutaneous tumors”; in assay [2] it was “high taken up by HCCLM3 subcutaneous tumors”.
For the substance “RWYD-PEG4-K(ICG)-K(NOTA) [listing 2 of 2 here]”, the “tumor uptake, near infrared imaging” value in assay [3] is “not high taken up”; in assay [4], “high taken up”.

The record behind these values is US20240342320A1, “POLYPEPTIDE TARGETING INTEGRIN ALPHA 6 AND USE THEREOF” (GUANGZHOU GENBIONOVA MEDICAL TECHNOLOGY CO., LTD., priority 2021, published 2024).
